# Patent publication US20190274308A1, “METHOD FOR PROTECTING PLANTS FROM PESTS USING A PESTICIDE COMPOSITION WITH ADJUSTABLE PERSISTENCE AND DEGRADABILITY” (Flechsig Patent Company LLC, priority 2016, published 2019)
# Format: physicochemical
# Description: A further characterizing parameter of the soil is the content of microorganisms, in particular bacteria, fungi and microfauna.
# Tables 5 and 6 below indicate the degradation times of exemplary poly(alkyl)guanidines depending on various contents of microorganisms in the soil.
# These determinations were obtained basically according to established methods, in particular as described in “Bodenbiologische Arbeitsmethoden”, 2nd revised and expanded edition, F. Schinner, E. Kandeler, R. Öhlinger, R. Margesin (eds.) (1993).
# To determine the total bacterial count according to Trolldenier (1972), a soil suspension is applied onto a defined area of a slide and the dried soil film is stained with acridine orange. The bacterial count is determined in a plurality of counting fields under the fluorescence microscope and from this the total bacterial count of the soil sample is calculated.
# The ergosterol of the soil fungi is saponified with KOH, extracted with n-hexane in the separating funnel, dried at 40° C. in the rotary evaporator and then dissolved in methanol. Detection is achieved by means of HPLC at 282 nm. The procedure is based on the method of Zelles et al. (1987) and was modified in a few points.
# For the sake of simplicity calculation is performed using the dimensions of the dishes. At least 10 individuals per species should be measured. The resulting volume mean value can be equated numerically with the weight, as the specific mass of the microfauna is approximately 1 g cm^−3.
row,Substance,"Difference days min/max degradation time, bact., fungi, microfauna [days]"
1,poly(octamethylene)guanidine [C8 POMG],36
2,poly(hexamethylene)guanidine [C6 PHMG],30
3,poly(tetramethylene)guanidine [C4 PTMG],22
